In patent publication US20020065259A1, “Glucocorticoid blocking agents for increasing blood-brain barrier permeability” (priority 2000, published 2002):
Read-outs that look alike come from different tables or passages of the source.

Experiments:
BBB permeability [1] = experiment: Example 2: mifepristone pellet in rats, brain haloperidol and clozapine levels and brain dopamine metabolites; format: in vivo
Protocol: Rats (male Sprague Dawley 175-200 grams) are maintained, 3 rats per cage, under controlled temperature and lighting (12 hours light/12 hours dark) with food and water ad libitum. […] Two hours prior to sacrifice the animals are injected with either haloperidol (1 mg/kg s.c; RBI Natick, Mass.) or an equivalent volume of vehicle (0.3% tartaric acid, pH 5.3) or with either clozapine (15 mg/kg s.c.; RBI, Natick, Mass.) or vehicle (0.9% saline plus 0.8% acetic acid). Animal sacrifice is by decapitation during the first four hours of the light cycle. Blood is collected and brains removed and frozen on dry ice for storage at −80° C. Frozen brains are sliced into 250 μm sections with a cryostat. The medial prefrontal cortex (AP 13.7 to 12.2 mm) is dissected with a scalpel, the striatum (AP 10.7 to 9.7 mm) is removed with stainless steel cannulae from frozen slices and the core and shell of the nucleus accumbens (AP 10.7 to 9.7 mm) is removed. Brain regions are dissected within 24-72 hours of slicing. […] Dopamine metabolites homovanillic acid (HVA) and dihydroxyphenylacetic acid (DOPAC) are measured in the brains of the experimental animals. […] Tissue pellets are dissolved in 1.0 N NaOH for protein determination (BioRad, Richmond, Calif.). Cortical supernatants are filtered through a 0.45 μm filter and 5-80 μl of supernatant is injected directly onto a C18 reverse phase analytical column (5 μm, 250×4.6 mm; Biophase ODS, BAS, West Lafayette, Ind.) protected by a precolumn cartridge (5 μm, 30×4.6 mm, BAS) as described with modification (Lindley et al. Proc. Soc. Exp. Biol. Med. 188:282-286 (1988)). DOPAC and HVA were detected using an electrochemical detector. For cortical regions, the conditioning electrode is set at +0.35 V and the dual analytical electrode is set at +0.02 V and −0.35 V, respectively (ESA, Bedford, Mass.). For other regions a single analytical electrode set at +0.72 V is used (BAS, West Lafayette, Ind.). Brain clozapine levels are analyzed by National Medical Services, Inc. (Willow Grove, PN) while brain and plasma haloperidol and reduced haloperidol and plasma clozapine levels are analyzed by Analytical Psychopharmacology Laboratories (Nathan Kline Institute, Orangeburg, N.Y.), both by gas chromatography.

BBB permeability [2] = settings: adrenalectomized rats with vehicle (placebo) pellets; haloperidol 1 mg/kg s.c. or clozapine 15 mg/kg s.c., 2 h before sacrifice
BBB permeability [3] = experiment: Example 3: mifepristone pellet in rats, delivery of Amphotericin B to brain; format: in vivo; settings: mifepristone 200 mg 10-day sustained release pellet, Amphotericin B 0.1 mg i.v. 2 h before sacrifice
Protocol: Rats (male Sprague Dawley 175-200 grams) are maintained, 3 rats per cage, under controlled temperature and lighting (12 hours light/12 hours dark) with food and water ad libitum. […] Two hours prior to sacrifice the animals are injected with either Amphotericin B (0.1 mg i.v.; Sigma Chemical Co., (800) 325-3010) or an equivalent volume of vehicle (0.1% DMSO in saline, pH 11). Animal sacrifice is by decapitation during the first four hours of the light cycle. Blood is collected and brains removed and frozen on dry ice for storage at −80° C. Amphotericin B concentration is measured in the brains of the experimental animals. The Amphotericin B concentration is greater in the brains of mifepristone-treated animals than in placebo-treated animals.

BBB permeability [4] = experiment: Example 4: mifepristone pellet in rats, delivery of ampicillin to brain; format: in vivo; settings: mifepristone 200 mg 10-day sustained release pellet, ampicillin 1.5 mg i.v. 2 h before sacrifice
Protocol: Animal sacrifice is by decapitation during the first four hours of the light cycle. Blood is collected and brains removed and frozen on dry ice for storage at −80° C. Ampicillin concentration is measured in the brains of the experimental animals.

BBB permeability [5] = experiment: Example 5: mifepristone pellet in rats, delivery of methotrexate to brain; format: in vivo; settings: mifepristone 200 mg 10 day sustained-release pellet, methotrexate 0.5 mg i.v. 2 h before sacrifice
Protocol: Rats (male Sprague Dawley 175-200 grams) are maintained, 3 rats per cage, under controlled temperature and lighting (12 hours light/12 hours dark) with food and water ad libitum. […] Two hours prior to sacrifice the animals are injected with either methotrexate (0.5 mg i.v; Sigma Chemical Co., (800)325-3010) or an equivalent volume of vehicle (saline, pH 9). Animal sacrifice is by decapitation during the first four hours of the light cycle. Blood is collected and brains removed and frozen on dry ice for storage at −80° C. Methotrexate concentration is measured in the brains of the experimental animals. The methotrexate concentration is greater in the brains of mifepristone-treated animals than in placebo-treated animals.

BBB permeability [6] = experiment: Example 6: mifepristone s.c. injection in rats, delivery of adriamycin to brain; format: in vivo; settings: mifepristone 2 mg s.c. 4 h before sacrifice, adriamycin 0.5 mg i.v. 2 h before sacrifice
Protocol: Animal sacrifice is by decapitation during the first four hours of the light cycle. Blood is collected and brains removed and frozen on dry ice for storage at −80° C. Adriamycin concentration is measured in the brains of the experimental animals.

[7] = rats, mifepristone 200 mg 10-day sustained-release pellet, clozapine 15 mg/kg s.c.
[8] = rats, mifepristone 200 mg 10-day sustained-release pellet, haloperidol 1 mg/kg s.c.

brain concentration of clozapine, mifepristone-treated vs placebo (BBB permeability [1]; [7])	brain concentration of haloperidol, mifepristone-treated vs placebo (BBB permeability [1]; [8])	Amphotericin B concentration in the brain, mifepristone-treated vs placebo (BBB permeability [3])	ampicillin concentration in the brain, mifepristone-treated vs placebo (BBB permeability [4])	methotrexate concentration in the brain, mifepristone-treated vs placebo (BBB permeability [5])	adriamycin concentration in the brain, mifepristone-treated vs placebo (BBB permeability [6])	Structure (SMILES)	measured levels of HVA and DOPAC in the brain (BBB permeability [1]; rats with placebo pellet, haloperidol 1 mg/kg s.c. or clozapine 15 mg/kg s.c., 2 h before sacrifice)	measured levels of HVA and DOPAC in the brain (BBB permeability [2])	increase in dopamine metabolite levels following clozapine treatment, mifepristone-treated vs placebo (BBB permeability [1]; [7])	increase in dopamine metabolite levels following haloperidol treatment, mifepristone-treated vs placebo (BBB permeability [1]; [8])
–	–	–	–	–	–	O=C(CCCN1CCC(O)(c2ccc(Cl)cc2)CC1)c1ccc(F)cc1 [haloperidol]	elevated	elevated	–	–
greater	greater	greater	greater	greater	greater	CC#C[C@]1(O)CC[C@H]2[C@@H]3CCC4=CC(=O)CCC4=C3[C@@H](c3ccc(N(C)C)cc3)C[C@@]21C [mifepristone, (11β,17β)-11-[4-(dimethylamino)phenyl]-17-hydroxy-17-(1-propynyl)estra-4,9-dien-3-one]	–	–	greater	greater
